Assay [1] relates to lymphoma (U937) cell line. Also noted: method as in PMID 17088067. Particulars: cited from earlier work.
A further assay relates to ERK-2. Also noted: method as in PMID 11006132. The note with it: 100 µM, compared to the control; cited from earlier work.
In assay [2] the test system is human neuroblastoma SH-SY5Y cells. Also noted: method as in PMID 15876476. The note with it: 50 µM; cited from earlier work.
Assay [3] relates to human promyelocytic leukemia (HL60) cancer cells. More on the design: method as in PMID 11006132. Particulars: 100 µM; cited from earlier work.
Assay [4] deals with caspase 3/7 activity in HT29 cells. Description: Caspase-Glo 3/7 assay. The format is cell-based, human. The note with it: positive control, 5 µM, 12 h. The procedure: All media and chemicals were purchased from Sigma Aldrich (Castle Hill, NSW, Australia) unless otherwise stated. HT29 human colorectal cancer cell line (passage no. 36-42) were cultured (37 °C and 5% CO2) in Dulbecco’s Modified Eagle’s Medium (DMEM) supplemented with 4500 mg/L L-glutamine, 10% FBS, 100 U/mL Penicillin/Streptomycin and 1% Non-essential Amino Acid (100×), until the cells reached 70% confluence. The cells were harvested from flasks by trypsinization (1× Trypsin-EDTA) and were seeded (20,000 cells/well) into clear 96-well plates (Costar®, Mt Martha, VIC, Australia) for measurement of cell viability and white (opaque) 96-well plates (Interpath, Heidelberg West, VIC, Australia) for determination of apoptosis and necrosis. HT29 cells were incubated for 48 h, then the media was removed and the cells were washed with PBS. To treat the cells, synthetic 6-bromoisatin was dissolved in 100% dimethylsulphoxide (DMSO) then diluted in media and added to the cells at a range of concentrations from 0.1 to 0.01 mg/mL, in triplicate (final DMSO concentration of 1%). 1% DMSO controls were also included on each plate. Staurosporine (5 µM) for apoptosis and lysis solution (5 μL/well, Promega, Alexandria, NSW, Australia) for necrosis were added to the white plates in triplicate, as positive controls. All cells were treated for 12 h. Morphological changes in the cells were observed on an Olympus CK2 inverted optical microscope (×400 magnification) 12 h after treatment. To measure cell viability, the MTT assay was applied, which measures the reduction of MTT tetrazolium salt to formazan, as previously described. To measure necrosis and apoptosis, CytoTox-ONE Homogeneous Membrane Integrity Assay reagent (Promega) and Caspase-Glo 3/7® assay (Promega) were applied respectively, according to our previous study. These assays were all repeated in triplicate on three separate occasions (n = 3).

This is an account of results in publication PMC3917258, “6-Bromoisatin Found in Muricid Mollusc Extracts Inhibits Colon Cancer Cell Proliferation and Induces Apoptosis, Preventing Early Stage Tumor Formation in a Colorectal Cancer Rodent Model” (Marine Drugs, 2013).

Turning to `O=C1Nc2ccc(Br)cc2C1=O` [5-bromo-], the “activity for killing cancer cells relative to unsubstituted isatin” value in assay [1] is 5–10 times.

As for `O=C1Nc2ccc(F)cc2C1=O` [5-fluoroisatin], the “activity for killing cancer cells relative to unsubstituted isatin” value in assay [1] was 5–10 times.

As for `O=C1Nc2ccc(I)cc2C1=O` [5-iodo-], the “activity for killing cancer cells relative to unsubstituted isatin” value in assay [1] is reported as 5–10 times.

In the case of `O=C1Nc2ccccc2C1=O` [isatin, 1H-indole-2,3-dione], in the assay with ERK-2, the “inhibition of phosphorylation of ERK-2” value is on record as 35%. Moreover, in assay [2], the apoptosis result is listed as “apoptosis was observed”. For the same compound, in assay [3], the “reduction of cell proliferation” value is listed as 80%.

For the compound `CN[C@@H]1C[C@H]2O[C@@](C)([C@@H]1OC)n1c3ccccc3c3c4c(c5c6ccccc6n2c5c31)C(=O)NC4` [staurosporine, reference compound], the “caspase 3/7 activity” value in assay [4] was “significant increase”.
